Patent US12233070B2, “Methods for treating benzodiazepine misuse/use disorder” (University of M[…] Center, priority 2020, dated 2025)
Entries after “also recorded” stand apart in the source; their conditions may differ. Marks after values point to notes of the source that are not given here.

How the values were obtained:
[1] = system: Sprague-Dawley rats; test: Pulmonary ventilation, whole body plethysmography; type: in vivo, rat; details: 3.0 mg/kg, i.p.; N=8 rats
Method: We first assessed the effects of TPA023B, in comparison with alprazolam, using whole body plethysmography (WBP; DSI systems). For these studies, adult male Sprague-Dawley rats (n=8) were habituated to the chambers for 30 min. The chamber was then filled with 21% oxygen, sealed, and pressure fluctuation measured for 1 min. Next, the chamber was opened and the rats were injected with alprazolam or TPA023B, i.p., and placed into the sealed chamber for a 15 min pretreatment time. The chamber was again filled with 21% oxygen, and for 1 min, fluctuating pressure amounts were recorded to obtain tidal volume (lung capacity), breaths/minute, and minute volume (lung capacity per unit time).

[2] = system: rhesus monkeys; test: Conflict model of anxiolysis (mult FR, FR+PUN); type: in vivo, rhesus monkey; details: i.v.; for Non-Suppressed, Mean responses/s (SEM) / Suppressed, Mean responses/s (SEM): N = 4 monkeys
Source text: The conflict procedure methodology includes a two-component multiple fixed-ratio, fixed-ratio plus punishment schedule (mult FR, FR+PUN). An important feature of this model is that it is highly predictive of clinically active doses in human subjects (Rowlett et al. 2006, Psychopharmacology 184: 201-11). One component of this schedule was associated with a distinctive visual stimulus (e.g., red light) and the other component was associated with a different stimulus (e.g., green light). In each component, completion of 10 responses (FR 10) produced a food pellet followed by a brief (10 sec) timeout period. The component ended following delivery of 5 food pellets or 5 min, whichever occurred first. A 10-min timeout period occurred before each of four cycles with two components (1 red, 1 green) per cycle. When performance in both components of the multiple schedule was stable, responding in one component was suppressed by superimposing a FR schedule of response-produced electric shock. Under the superimposed schedule, every nth response (n=15-25, adjusted for each monkey depending on individual performance) produced shock. Once responding was stable (at least three sessions in which suppressed responding was less than 50% of non-suppressed responding, with no upward or downward trend in response rates in either component), investigational compounds were administered i.v. during the extended timeout periods using a cumulative dosing technique. This technique allowed determination of a four-point dose-response function in a single session.
Table 2 summarizes data for TPA023B in the conflict procedure (n=4 monkeys, 2 females and 2 males), with alprazolam as a positive control. Average responses when vehicle was administered was 2.2 in the non-suppressed component, decreased by ˜98% by shock presentation in the suppressed component (mean=0.05 responses). For non-suppressed responding, TPA023B had no effects on mean rates of responding or percent of control over a 100-fold dose range (0.01 to 1.0 mg/kg, i.v.). […] This effect was similar to that observed with 0.03 mg/kg, i.v., of alprazolam. A striking characteristic of TPA023B in this procedure is the lack of attenuation of rates of responding at higher doses.

[3] = system: rhesus monkeys; test: Observation/sedation, focal animal behavioral scoring; type: in vivo, rhesus monkey; details: at least one dose significantly different from vehicle; out of 22 behaviors; i.v.; N = 4 monkeys
Method: For the data shown here, the behavior of each monkey (n=4 total) was scored using a focal animal approach as described previously (Duke et al. 2018, J Pharmacol Exp Ther 366: 145-57). Briefly, a trained observer blind to the drug treatments observed a specific monkey for 5 min and recorded each instance that a particular behavior occurred during 15-s intervals. Scores for each behavior were calculated as the number of 15-s bins in which the behavior occurred (e.g., a maximum score would be 20). For sedation measures, structured exposure to stimuli were included in the observation sessions (Duke et al., 2018). […] Specifically, the observer presented three stimuli: 1) walked at a normal pace towards the cage, 2) spoke the animal's name, and 3) moved the lock used to secure the door of the cage. […] If the monkey attended more slowly (i.e., >3 s following stimuli), the observer scored “moderate sedation”.
The assessment of sedation was initiated during the 5-min sampling period if the animal presented, at any time during that period, with its eyes closed for longer than 3 s. The result of this assessment was recorded for each remaining 15-sec interval of the 60-sec epoch unless eyes opened. Afterwards, eyes closing again initiated the assessment. If eyes remained closed, then the assessment was repeated at the beginning of the next 60-sec epoch 15-sec interval. Therefore, the maximum score for sedation during a 5-min period was 20 (four possible scores for 4×15-sec intervals per min, 5 min total; i.e., 4 possible scores×5 min=20). The order in which animals were observed and the observer performing the scoring each day was randomized. Four observers participated in the scoring throughout the duration of the study; each observer underwent a minimum of 20 hours of training and met an inter-observer reliability criterion of ≥90% agreement with all other observers.
The five-min sampling periods were repeated at multiple times following i.v. injection of TPA023B or vehicle (minutes post injection): 5, 10, 20, 40, 80, 160, 320. Scores were cumulated across the time periods, resulting in a maximum possible cumulative score of 140. TPA023B was compared with alprazolam, and the results have been published by Duke et al. (2018).

[4] = parameters: key to Pharmacokinetics: “poor” - low bioavailability and/or short half-life; “good” - potent with long half-life; details: in vivo; cited from earlier work
[5] = biological target: α3 subunit-containing GABAA receptors (Homo sapiens, UniProt P18507+P34903); parameters: key: act as partial positive modulators for particular subtype combinations; none: zero efficacy (i.e., antagonism) at other subtypes; details: cited from earlier work
Chain of α3 subunit-containing GABAA receptors (P34903 29-492): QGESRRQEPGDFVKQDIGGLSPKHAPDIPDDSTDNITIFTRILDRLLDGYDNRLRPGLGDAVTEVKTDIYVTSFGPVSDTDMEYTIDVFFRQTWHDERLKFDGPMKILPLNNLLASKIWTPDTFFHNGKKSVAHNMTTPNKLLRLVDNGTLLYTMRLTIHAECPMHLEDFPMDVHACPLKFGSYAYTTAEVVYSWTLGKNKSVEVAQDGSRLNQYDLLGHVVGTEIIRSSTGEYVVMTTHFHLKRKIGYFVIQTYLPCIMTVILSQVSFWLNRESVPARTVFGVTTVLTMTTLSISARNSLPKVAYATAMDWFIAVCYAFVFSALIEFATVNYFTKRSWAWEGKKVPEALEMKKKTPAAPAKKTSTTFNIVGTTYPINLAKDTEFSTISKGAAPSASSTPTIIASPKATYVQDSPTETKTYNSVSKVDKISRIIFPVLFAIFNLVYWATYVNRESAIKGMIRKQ
Chain of α3 subunit-containing GABAA receptors (P18507 40-475): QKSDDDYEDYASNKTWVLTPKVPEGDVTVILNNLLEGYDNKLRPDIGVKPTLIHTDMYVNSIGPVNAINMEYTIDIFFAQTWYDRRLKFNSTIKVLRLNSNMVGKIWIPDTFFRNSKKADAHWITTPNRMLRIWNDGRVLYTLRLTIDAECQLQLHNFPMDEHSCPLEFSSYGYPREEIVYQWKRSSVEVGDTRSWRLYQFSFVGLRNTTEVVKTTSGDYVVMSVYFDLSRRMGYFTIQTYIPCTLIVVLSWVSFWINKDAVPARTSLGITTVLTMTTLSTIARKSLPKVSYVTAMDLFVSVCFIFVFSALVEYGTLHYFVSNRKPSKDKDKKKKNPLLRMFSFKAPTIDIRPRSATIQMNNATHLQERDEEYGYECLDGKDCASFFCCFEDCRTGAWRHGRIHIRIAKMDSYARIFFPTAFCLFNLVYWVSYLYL
Chain of α3 subunit-containing GABAA receptors (P28472 26-473 partner): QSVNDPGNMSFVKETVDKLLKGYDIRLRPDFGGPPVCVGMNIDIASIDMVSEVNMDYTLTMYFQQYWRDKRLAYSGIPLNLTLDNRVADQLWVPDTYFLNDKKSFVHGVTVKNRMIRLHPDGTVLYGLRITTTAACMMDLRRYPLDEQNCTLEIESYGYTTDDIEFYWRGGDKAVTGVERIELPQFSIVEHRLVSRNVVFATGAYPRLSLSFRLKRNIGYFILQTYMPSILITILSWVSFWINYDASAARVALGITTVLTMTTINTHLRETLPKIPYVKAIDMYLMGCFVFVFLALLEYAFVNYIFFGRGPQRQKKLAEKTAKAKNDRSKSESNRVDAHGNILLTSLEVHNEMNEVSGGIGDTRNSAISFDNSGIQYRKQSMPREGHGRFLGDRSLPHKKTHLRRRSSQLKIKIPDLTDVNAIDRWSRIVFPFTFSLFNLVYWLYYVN

[6] = biological target: α2 subunit-containing GABAA receptors (Homo sapiens, UniProt P18507+P47869); parameters: key: act as partial positive modulators for particular subtype combinations; none: zero efficacy (i.e., antagonism) at other subtypes; details: cited from earlier work
Chain of α2 subunit-containing GABAA receptors (P47869 29-451): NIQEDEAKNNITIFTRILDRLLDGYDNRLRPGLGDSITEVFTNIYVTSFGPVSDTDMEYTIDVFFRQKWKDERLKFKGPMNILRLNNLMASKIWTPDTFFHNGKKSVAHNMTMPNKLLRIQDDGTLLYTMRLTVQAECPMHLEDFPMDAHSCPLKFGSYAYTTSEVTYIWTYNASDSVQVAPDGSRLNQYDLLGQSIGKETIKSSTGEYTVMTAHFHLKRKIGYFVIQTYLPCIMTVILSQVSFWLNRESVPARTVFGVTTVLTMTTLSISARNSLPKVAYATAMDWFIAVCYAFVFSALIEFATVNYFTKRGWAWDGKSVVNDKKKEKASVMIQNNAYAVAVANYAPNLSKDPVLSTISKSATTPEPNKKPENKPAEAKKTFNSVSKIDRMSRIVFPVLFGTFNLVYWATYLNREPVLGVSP
Chain of α2 subunit-containing GABAA receptors (P18507 40-475): as the sequence (P18507 40-475) above
Chain of α2 subunit-containing GABAA receptors (P28472 26-473 partner): as the sequence (P28472 26-473 partner) above

[7] = biological target: α1 subunit-containing GABAA receptors (Homo sapiens, UniProt P14867+P18507); parameters: key to Subtype α1: act as partial positive modulators for particular subtype combinations; none: zero efficacy (i.e., antagonism) at other subtypes; details: cited from earlier work
Chain of α1 subunit-containing GABAA receptors (P14867 28-456): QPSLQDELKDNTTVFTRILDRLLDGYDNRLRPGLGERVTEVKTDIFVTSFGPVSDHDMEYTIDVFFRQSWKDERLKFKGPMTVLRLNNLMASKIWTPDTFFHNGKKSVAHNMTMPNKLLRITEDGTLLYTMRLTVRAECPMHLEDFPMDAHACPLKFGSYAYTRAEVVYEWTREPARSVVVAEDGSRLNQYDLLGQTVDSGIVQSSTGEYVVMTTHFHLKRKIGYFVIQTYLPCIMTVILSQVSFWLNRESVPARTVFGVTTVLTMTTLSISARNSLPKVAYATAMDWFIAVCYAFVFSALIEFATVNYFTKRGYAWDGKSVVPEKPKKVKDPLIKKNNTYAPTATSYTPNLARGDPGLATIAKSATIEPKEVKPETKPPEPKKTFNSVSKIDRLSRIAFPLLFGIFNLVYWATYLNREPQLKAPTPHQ
Chain of α1 subunit-containing GABAA receptors (P18507 40-475): as the sequence (P18507 40-475) above
Chain of α1 subunit-containing GABAA receptors (P28472 26-473 partner): as the sequence (P28472 26-473 partner) above

[8] = biological target: α5 subunit-containing GABAA receptors (Homo sapiens, UniProt P18507+P31644); parameters: key to Subtype α5: act as partial positive modulators for particular subtype combinations; none: zero efficacy (i.e., antagonism) at other subtypes; details: cited from earlier work
Chain of α5 subunit-containing GABAA receptors (P31644 32-462): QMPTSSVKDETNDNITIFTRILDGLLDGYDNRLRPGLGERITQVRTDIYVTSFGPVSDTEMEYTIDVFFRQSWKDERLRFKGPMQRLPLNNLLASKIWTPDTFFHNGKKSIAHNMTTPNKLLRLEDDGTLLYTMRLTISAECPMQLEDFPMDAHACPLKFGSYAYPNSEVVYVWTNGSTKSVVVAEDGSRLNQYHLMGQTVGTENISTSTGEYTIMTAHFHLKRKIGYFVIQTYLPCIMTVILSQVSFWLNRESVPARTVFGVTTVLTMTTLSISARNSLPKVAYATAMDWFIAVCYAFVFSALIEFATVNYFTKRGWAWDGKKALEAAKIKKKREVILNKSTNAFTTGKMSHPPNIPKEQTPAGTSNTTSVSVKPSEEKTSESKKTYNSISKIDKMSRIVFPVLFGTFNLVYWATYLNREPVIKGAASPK
Chain of α5 subunit-containing GABAA receptors (P18507 40-475): as the sequence (P18507 40-475) above
Chain of α5 subunit-containing GABAA receptors (P28472 26-473 partner): as the sequence (P28472 26-473 partner) above

[9] = system: rats; test: Blockade of diazepam suppression of responding (30 min pretreatment); type: in vivo, rat; details: ligand 3.0 mg/kg; diazepam 30 min pretreatment; FIG. 12A; N=5
Method: This profile is very similar to that of TPA023B despite the structural differences. […] For both compounds, we chose 3.0 mg/kg, i.p., in rats based on published literature or pilot studies in our laboratories.
FIGS. 12A and 12B illustrate the results of acute dependency testing using these compounds.

[10] = rhesus monkey; cited from earlier work
[11] = system: Sprague-Dawley rats; test: Food-maintained responding (FR 10), ligand alone; details: for effect on rates of responding: diazepam 3.0 mg/kg
[12] = system: Sprague-Dawley rats; test: Precipitated withdrawal/acute dependence: responding 60 min after diazepam bolus; type: in vivo, rat
Method: Acute dependence can occur after single exposures to the benzodiazepine chlordiazepoxide, but not to an α2/3GABAA selective ligand (Fischer et al. 2013, Psychopharmacology 227: 347-54). Here, the extent to which TPA023B can precipitate withdrawal in rats following a single, large bolus dose of diazepam was studied. […] Once rates of responding were stable, doses of diazepam, the non-selective benzodiazepine antagonist flumazenil, and TPA023B were administered prior to the session.

[13] = system: rhesus monkeys; test: Midazolam self-administration (PR) after TPA023B pretreatment; type: in vivo, rhesus monkey; details: midazolam alone, PR procedure
Method: To test this, we have trained monkeys to self-administer the short-acting conventional benzodiazepine midazolam (0.056 mg/kg/injection, i.v.) in the PR procedure, as described above. During test sessions, we initially kept the training dose of midazolam constant, and administered i.v. pretreatments of TPA023B (0.003, 0.01, 0.03, 0.1, 0.3 mg/kg, of vehicle) immediately prior to the beginning of the session. A key consideration for any pharmacotherapy, as well as interpretation of blockade of reinforcing effects generally, is the extent to which the blockade is specific to the drug target and not a generalized suppression of behavior, e.g., due to sedative-motor effects inhibiting the ability of the monkey to press the lever. Another possible confounding factor that would potentially result in blockade of drug taking is general sickness or perceptual alterations. In particular, appetite suppression would represent an undesirable side effect in a benzodiazepine addiction pharmacotherapy.
To further evaluate the extent to which attenuation of responding was due to pharmacological antagonism and to evaluate an exemplary range of effective doses, we evaluated single doses of TPA023B administered prior to sessions in which differing doses of midazolam were tested.

## Cc1nnc2n1-c1ccc(Cl)cc1C(c1ccccc1)=NC2 [Alprazolam, alprazolam]
[1]
  breathing frequency: significantly reduced
  minute volume: significantly reduced
[2]; 0.03 mg/kg
  Non-Suppressed, Mean responses/s (SEM): 1.8 (0.31) responses/s
  Suppressed, Mean responses/s (SEM): 1.9 (0.10)* responses/s
[2]; 0.3 mg/kg
  effect on non-suppressed responding: markedly attenuated
  Non-Suppressed, Mean responses/s (SEM): 0.18 (0.09)* responses/s
  Suppressed, Mean responses/s (SEM): 0.10 (0.10) responses/s
[3]
  Significant behavioral effects: Decrease: Exploration; also recorded: Passive Visual, Tactile/Oral
  Significant behavioral effects: Increase: Sedation, Deep Sedation,; also recorded: Observable Ataxia; also recorded: Rest/Sleep Posture, Moderate

## Cn1ncnc1COc1nn2c(-c3cc(F)ccc3F)nnc2cc1C(C)(C)C [L-838,417]
[4]
  PK: Poor
  Pharmacokinetics: poor
[5]
  Subtype α3: partial
[6]
  Subtype α2: partial
[7]
  Subtype α1: none
  efficacy at α1GABAA subtype: antagonist; also recorded: no efficacy
[8]
  Subtype α5: partial
[9]
  ability of diazepam to suppress rates of responding: blocked

## Cn1ncnc1COc1nn2c(-c3ccccc3)nnc2cc1C1CCC1 [MRK-067]
[4]
  PK: poor

## Cn1ncnc1COc1nn2c(-c3ccccc3F)nnc2cc1C1CCC1 [MRK-696]
[4]
  Pharmacokinetics: poor
[5]
  Subtype α3: partial
[6]
  Subtype α2: partial
[7]
  Subtype α1: partial
[8]
  Subtype α5: partial

## N#Cc1cc(F)ccc1-c1cc(-c2cnc3nc(C(F)(F)F)ccn23)ccc1F [MRK-898]
[10]
  bioavailability: 49%
  half-life: 13 h
[4]
  Pharmacokinetics: good
[5]
  Subtype α3: partial
[6]
  Subtype α2: partial
[7]
  Subtype α1: none
  efficacy at α1GABAA subtype: antagonist
[8]
  Subtype α5: none
  efficacy at α5GABAA subtype: antagonist

## CN1C(=O)CN=C(c2ccccc2)c2cc(Cl)ccc21 [diazepam]
[11]; N=8 rats, FIGS. 10A to 10C
  mean rates of responding (percent of baseline control), ligand alone: significantly decreased
[11]; 30 min pre-treatment
  effect on rates of responding: most robust effects
[11]; 60 min pre-treatment
  effect on rates of responding: no effects

## CCOC(=O)c1ncn2c1CN(C)C(=O)c1cc(F)ccc1-2 [flumazenil, reference compound]
[9]
  ability of diazepam to suppress rates of responding: blocked
[12]; all doses tested, vs ligand alone, FIGS. 11A and 11B
  rates of responding 60 min after 3.0 mg/kg diazepam (precipitated withdrawal): robustly suppressed responding
[12]; ligand 3.0 mg/kg, FIG. 12B, N=5
  rates of responding after 60-min pretreatment of diazepam (acute dependence): significant decrease

## Cc1ncc2n1-c1ccc(Cl)cc1C(c1ccccc1F)=NC2 [midazolam, reference compound]
[13]
  dose showing maximal self-administration: 0.018 mg/kg/injection

## MRK-409
[4]
  Pharmacokinetics: good
[5]
  Subtype α3: partial
[6]
  Subtype α2: partial
[7]
  Subtype α1: partial
[8]
  Subtype α5: partial
